The record followed here is patent publication US20120315254A1, “METHODS AND COMPOSITIONS FOR ENHANCING FAT GRAFT SURVIVAL” (Sebana Medical Ltd., priority 2010, published 2012).

Test [1] deals with human umbilical vein endothelial cells (HUVECs). Nature of the test: HUVEC proliferation ([3H]-thymidine incorporation). It is filed as cell-based. The settings on record: inhibitor exposure for 3 hours, without EPO. The protocol: To investigate EPO-induced angiogenesis through mechanisms involving pro-angiogenic factors, the present inventor measured the proliferation of EPO-treated HUVECs in the presence of various pro-angiogenic factor inhibitors. To this end, HUVECs (2×10^5 cells/well) were cultured on fibronectin-coated 12-well plates in EBM-2. The cultured HUVECs were treated with or without 100 IU/ml EPO for 48 hours, and then exposed for 3 hours to (a) 0.25 mg/ml bevacizumab, (b) 100 nM of PD173074; an inhibitor of bFGF (Calbiochem, San Diego, Calif.), (c) 20 μM of tyrphostin AG 1296; a selective inhibitor of PDGF (Sigma), (d) a combination of bevacizumab, PD173074 and tyrphostin, and to (e) 100 nM wortmannin; a phosphatidylinositol 3-kinaz (PI 3-K) inhibitor (Sigma). Upon the completion of the experiment, the cells were washed with PBS and then incubated with 1 μCi/ml medium [^3H]-thymidine (NEN, Boston, Mass., USA) for 5 h at 37° C. Thereafter, 0.5 ml cold 10% Trichloroacetic acid (TCA) was added into each well for another 30 min at 4° C. To extract the ^3H-thymidine labeled DNA, 0.5 ml 1N NaOH was added to each well for 10 min at room temperature, and then 0.5 ml 1N HCl was added and mixed well. Samples of mixture solution (0.5 ml) was taken from each well and added to scintillation vials for the measurement of [^3H]-thymidine incorporation to DNA (cpm/mg protein). Duplicate cell counts were averaged for 3 experiments. Data were expressed as the percentage of control.
A general note: Incorporation of labelled thymidine or its analogues reports DNA synthesis.

The test system of test [2] is human fat grafts. Nature of the test: Fat graft weight and volume 15 weeks after transplantation. It is filed as in vivo, CD-1 nude mice. The conditions noted are these: VEGF 200 ng/100 μl PBS every three days for 18 days; week 15; second experiment. An excerpt:
Fat was harvested from the thigh of a person by suction-assisted lipectomy under […] anesthesia. The fat was aspirated under local anesthesia using a 14-gauge blunt cannula, and then processed under sterile conditions for subsequent grafting into nude mice within two hours of its collection according to previously published protocols [Ullmann et al. (2005) Dermatol Surg 31:1304-7; Kurita et al. (2008) Plast Reconstr Surg 121:1033-1041].
(§1) The first study comprised 30 seven-week-old female CD-1 nude mice (Harlan, Jerusalem, Israel). These mice were housed in cages in a room with an artificial 12-h light/dark cycle at a constant temperature range (24±2° C.) and relative humidity (55±10%). The mice were acclimated for one week prior to the study, and fed a standard laboratory chow and water ad libitum. The 30 mice were randomly divided into three equal groups and treated as follows: Group 1 mice were injected with 1 ml of human fat and were treated with sterile PBS (control group). Group 2 mice were injected with 1 ml human fat and were treated with 1000 IU/kg EPO (low-dose EPO group). […]
(§2) After 15 weeks, all mice were humanely killed and the fat grafts were carefully dissected from their scalps (FIG. 1C). Each fat graft was weighed and the volume of the fat graft was measured by the liquid overflow method as previously described [Ayhan et al. (2001) Aesthetic Plast Surg 25:338-342]. […]

The test system of test [3] is human fat grafts. Kind of test: Extent of apoptosis in fat grafts (TUNEL assay). The conditions noted are these: VEGF-treated (200 ng/100 μl PBS) vs PBS-treated fat grafts; week 15. It is filed as in vivo, CD-1 nude mice. As for the experimental part: The extent of apoptosis in all fat grafts was assessed by the terminal deoxyuridine triphosphate nick end labeling (TUNEL) assay using a commercial kit (ApopTag® Plus Fluorescein Kit, CHEMICON, CA, USA), in accordance with the manufacturer's instructions. Duplicates were carried out for each sample and were processed by fluorescence-activated cell sorting (FACS, Becton Dickinson, N.J., USA). Data was analyzed using the Macintosh CELLQuest software program (Becton Dickinson).

Test [4] has as its system CD31-positive endothelial cells. Kind of test: Microvascular density (MVD, CD31) in fat grafts. The test is classed as in vivo, CD-1 nude mice. As for the experimental part:
Quantification of macrophage infiltration in the fat grafts was estimated by counting the number of CD68-positive cells in five fields per fat graft in all fat graft sections. Microvascular density (MVD) in fat grafts was determined in five regions of interest where the CD31 antibody signal was the most intense in each section in all of the fat graft sections. The number of macrophages and blood vessels in each region was counted under a light microscope at 400× magnification. The assessment in each fat graft was made by calculating the mean result in two different sections per fat graft and five different fields of view per section.
The paraffin-embedded fat graft sections were incubated overnight at room temperature with a monoclonal antibody against tissue CD31 (R&D Systems, Minneapolis Minn., USA) as previously described [Li et al. (2005) J Cell Biochem 95:559-570]. Upon completion of the incubation, the specimens were counterstained with hematoxylin. Mouse IgG was used as a negative control. The microvascular density (MVD) was determined in five regions of interest where the CD31 antibody signal was most intense. The number of blood vessels in each region was counted under a light microscope at […] magnification.

The subject of test [5] is bFGF, IGF-1, PDGF-BB, VEGFR-2, EPOR, MMP-2, PKB, phosphoPKB, caspase 3, cytochrome c. Nature of the test: Expression of angiogenic, survival and pro-apoptotic factors in fat grafts (Western blotting, immunohistochemistry). The settings on record: VEGF-treated vs PBS-treated fat grafts, Western blot; week 15. It is filed as in vivo, CD-1 nude mice. The protocol:
(§3) Histological slides of the formalin-maintained samples were prepared and then stained with hematoxylin and eosin using standard procedures. Immunohistochemistry was performed using rabbit monoclonal antibodies against tissue CD31, VEGFR-2 and EPOR, and goat polyclonal IgG against VEGF (R&D Systems, Minneapolis Minn., USA), and CD68 (Dako, Glostrup, Denmark). The paraffin-embedded fat graft sections were incubated with the antibodies overnight at room temperature followed by incubation with appropriate secondary antibodies [Li et al. (2005) J Cell Biochem 95: 559-570]. Upon completion of the incubations, the specimens were counterstained with hematoxylin. Mouse IgG was used as a negative control. […]
The expression levels of the angiogenic factors, bFGF, IGF-1, PDGF-BB VEGFR-2, EPOR and MMP-2, the cell survival factor PKB and phosphorylated PKB, and the pro-apoptotic factors caspase 3 and cytochrome c were determined in homogenates of the harvested fats grafts by Western blotting. […] The resultant bands were quantified by densitometry.

A further test deals with VEGF. Kind of test: Plasma VEGF concentration and fat graft VEGF content (ELISA). It is filed as in vivo, CD-1 nude mice. The settings on record: VEGF-treated (200 ng/100 μl PBS) vs PBS-treated fat grafts; week 15. The protocol: as §1
The duration of the study period of both experiments was 15 weeks from the start of fat transplantation. […] VEGF and EPO concentrations were determined in homogenates of samples of the fat grafts using commercial enzyme-linked immunosorbent assays (Quantikine® VEGF immunoassay Kit and Quantikine® WD® Erythropoietin Kit, R&D Systems, MN, USA) in accordance with the manufacturer's instructions.
as §2

Test [6] relates to human umbilical vein endothelial cells (HUVECs). Kind of test: In vitro tube formation of HUVECs on matrigel. The test is classed as cell-based. As for the experimental part: The in vitro angiogenic potential of VEGF and EPO was measured by assessment of their ability to form tubes of endothelial cells on matrigel. To this end, human umbilical vein endothelial cells (HUVECs, LONZA, USA) were first cultured on fibronectin-coated 6-well plates in endothelial basal medium-2 (EBM-2, PromoCell, USA) until confluence and then the cells were treated with 0, 20 or 100 IU/ml EPO for 48 hours before their use in the assay (FIG. 7A). In a second experiment (FIG. 7B), HUVECs were exposed to 0, 100 IU/ml EPO or 200 ng/ml VEGF for 48 hours in EBM-2 with or without 0.25 mg/ml bevacizumab (Avastin®, Genentech, San Francisco, Calif., USA), a humanized monoclonal antibody that antagonizes the actions of VEGF. After 48 hours, the untreated HUVECs, the VEGF- and EPO-treated HUVECs, and the VEGF+bevacizumab- and EPO+bevacizumab-treated HUVECs were detached gently by 0.5% trypsin/EDTA, and then suspended in EBM-2. At the same time, frozen matrigel (Sigma Aldrich, St Louis Mo., USA) was thawed, and spread onto 96-well plates ([…]) at room temperature for 30 minutes to allow solidification. […] After 24 hours, the non-integrated cells were removed by washing and tube formation on the matrigel was assessed under a light microscope at 10× magnification. […]

Test [7] relates to human fat grafts. Nature of the test: Histological analysis of the dissected fat grafts (grades 0 to 5). It is filed as in vivo, CD-1 nude mice. The conditions noted are these: grade on a scale of 0 to 5; VEGF 200 ng/100 μl PBS; week 15. The protocol: The first study comprised 30 seven-week-old female CD-1 nude mice (Harlan, Jerusalem, Israel). These mice were housed in cages in a room with an artificial 12-h light/dark cycle at a constant temperature range (24±2° C.) and relative humidity (55±10%). The mice were acclimated for one week prior to the study, and fed a standard laboratory chow and water ad libitum. The 30 mice were randomly divided into three equal groups and treated as follows: Group 1 mice were injected with 1 ml of human fat and were treated with sterile PBS (control group). Group 2 mice were injected with 1 ml human fat and were treated with 1000 IU/kg EPO (low-dose EPO group). Group 3 mice were injected with 1 ml human fat and were treated with 5000 IU/kg EPO (high-dose EPO group). The fat was injected subcutaneously into the scalp using a 14G needle while the animals were manually restrained. Immediately following fat transplantation, the PBS-treated fat grafts were injected with 100 μl PBS (control group), and the EPO-treated fat grafts were injected with either 20 IU EPO/100 μl PBS (low-dose EPO group) or 100 IU EPO/100 μl PBS (high-dose EPO group) every three days for 18 days (a total of 6 injections). EPO was purchased as an injection ampoule (ARANESP®, Amgen AG, Zug, Switzerland) which contained 150 μg/ml (18,000 IU) of EPO.
The second animal study comprised 20 seven-week-old female CD-1 nude mice, and differed from the first study in that the fat was treated with VEGF (2 μg/ml, Sigma Aldrich, Mo., USA) following implantation. 10 mice were injected with fat followed by 200 ng VEGF/100 μl PBS injections every three days for a total of 18 days. The remaining 10 mice made up a second control group that was treated in an identical manner to the control group in the first study. Post-operative analgesics and antibiotics were not administered to the mice in the two experiments.
as §3

Consider tyrphostin AG 1296, for which the HUVEC proliferation result in test [1] was “reduced HUVEC proliferation significantly”.

Turning to `CCN(CC)CCCCNc1ncc2cc(-c3cc(OC)cc(OC)c3)c(NC(=O)NC(C)(C)C)nc2n1` [PD173074], the HUVEC proliferation result in test [1] is on record as “reduced HUVEC proliferation significantly”.

Consider “vascular endothelial growth factor [VEGF]”, for which, in the test with human fat grafts [2], the “fat graft Volume” value stood at 0.36 ± 0.2 mL and the “fat graft Weight” value is 0.35 ± 0.2 g. In addition, the “extent of apoptosis (TUNEL)” value with human fat grafts [3] is on record as “greater than that in the PBS-treated fat grafts”. Besides, in test [4] (VEGF-treated (200 ng/100 μl PBS) vs PBS-treated fat grafts, week 15), the “microvascular density (MVD)” value is recorded as “higher than, but not statistically different from”. Moreover, the “vessel morphology in fat grafts” value in test [4] (VEGF-treated fat grafts (data not shown)) was “unorganized vessel formation and perivascular hemorrhage”. The “expression levels of caspase 3 and cytochrome c” value in test [5] is “no statistical differences”. In addition, the “VEGF content in fat grafts” value with VEGF is recorded as “higher than, but not statistically different from”. The HUVEC tube formation result in test [6] (200 ng/ml VEGF, without bevacizumab (FIG. 7B)) is on record as “significantly enhanced”. In the test on human fat grafts [7], the Cyst/Vacuoles is 3.3 ± 1.0, the Fibrosis stood at 2.9 ± 0.7, the Inflammation is 4.0 ± 1.2 and the Integration was found to be 3.2 ± 0.9.

Regarding bevacizumab [reference compound], the HUVEC proliferation result in test [1] is given as “reduced HUVEC proliferation significantly”. Moreover, the HUVEC tube formation result in test [6] (0.25 mg/ml bevacizumab in VEGF-treated HUVECs) is reported as “substantially reduced”.
